Patent publication US6362166B1, “Antipicornaviral compounds and methods for their use and preparation” (Agouron Pharmaceuticals, Inc., priority 1996, dated 2002)
Like-named read-outs stand apart in the source and are kept apart here.

Columns and labels:
[1] = test system: HRV-14; experiment: Antirhinoviral HI-HeLa Cell Culture Assay (Cell Protection Assay, XTT dye reduction); format: cell-based, human rhinovirus (HRV) serotype-14; conditions: HI-HeLa cells infected with HRV-14, m.o.i. 0.13; two days; XTT; read-out: EC50
Procedure: In the Cell Protection Assay, the ability of compounds to protect cells against HRV infection was measured by the XTT dye reduction method. This method is described in Weislow, O. S., R. Kiser, D. L. Fine, J. Bader, R. H. Shoemaker, and M. R. Boyd, J. Natl. Cancer Inst. 1989, 81, 577-586, which is incorporated herein by reference.
(§1) HI-HeLa cells were infected with HRV-14 at a multiplicity of infection (m.o.i.) of 0.13 (virus particles/cell) or mock-infected with medium only. Infected or mock-infected cells were resuspended at 8×10^5 cells per mL and incubated with appropriate concentration of compounds of formulas I and II. Two days later, XTT/PMS was added to test plates and the amount of formazan produced was quantified spectrophotometrically at 450/650 nm. […] The therapeutic index (TI) was calculated by dividing the CC50 by the EC50.
(§2) All strains of human rhinovirus (HRV) for use in this assay were purchased from American Type Culture Collection (ATCC), except for HRV serotype-14, which was produced from the infectious cDNA clone, constructed and supplied to us by Dr. Roland Rueckert at the Institue for Molecular Virology, University of Wisconsin, Madison, Wisc. HRV stocks were propagated, and antiviral assays were perforemd in HI-HeLa cells (ATCC). Cells were grwon in Minimal Essential Medium, available from Life Technologies, with 10% fetal bovine serum.
The compounds were tested against control compounds WIN 51711, WIN 52084, and WIN 54954, all obtained from Sterling-Winthrop Pharmaceuticals, and control compound Pirodavir, obtained from Janssen Pharmaceuticals.

[2] = target: T1, Recombinant Rhinovirus 3C protease (RVP) serotype-14 (Human rhinovirus 14, UniProt P03303); experiment: Inhibition of Rhinovirus Protease (fluorescence resonance energy transfer assay), serotype 14; format: biochemical, human rhinovirus (HRV); conditions: RVP serotype-14; for kobs/I: progress curves in enzyme start experiments; for INHIB (percent inhibition): 10 minute preincubation with 50 nM RVP
T1 construct: Recombinant Rhinovirus 3C proteases from serotypes 14, 16, 2 or 89; made in house
T1 sequence (P03303 1538-1719): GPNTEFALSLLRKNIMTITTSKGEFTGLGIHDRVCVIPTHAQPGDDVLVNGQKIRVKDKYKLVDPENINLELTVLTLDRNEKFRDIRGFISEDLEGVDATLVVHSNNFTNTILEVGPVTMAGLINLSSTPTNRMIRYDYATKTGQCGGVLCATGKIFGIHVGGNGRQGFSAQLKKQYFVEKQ
Procedure: Stock solution (50 mM, in DMSO) of various compounds were prepared; dilutions were in the same solvent. […] Assays contained 2% DMSO, 50 mM tris pH 7.6, 1 mM EDTA, a compound at the indicated concentrations, approximately 1 μM substrate, and 50-100 nM protease. […] The kobs/I values were obtained from reactions initiated by addition of enzyme rather than substrate. RVP activity is measured in the fluorescence resonance energy transfer assay. […] In the uncleaved peptide, the EDANS fluorescence was quenched by the proximal DABCYL moeity. When the peptide was cleaved, the quenching was relieved, and activity was measured as an increase in fluorescence signal.
In the above table, all data is RVP serotype-14 unless otherwise noted in parentheses. All strains of human rhinovirus (HRV) were purchased from American Type Culture Collection (ATCC), except for serotype 14, which was produced from the infectious cDNA clone constructed and supplied to us by Dr. Roland Rueckert at the Institute for Molecular Virology, University of Wisconsin, Madison, Wisc. […] The data in the column designated kobs/I was measured from progress curves in enzyme start experiments.

[3] = test system: HI-HeLa cells; experiment: Cytotoxicity in mock-infected HI-HeLa cells (antirhinoviral assay, XTT); format: cell-based
Procedure: as §1, §2

[4] = mock-infected HI-HeLa cells, two days, XTT, read-out: CC50

SMILES | EC50 [1] [µM] | kobs/I [2] | CC50 [3] [µM] | CC50 [3, 4] [µM] | INHIB (percent inhibition) ([2]; 1 μM compound) | INHIB (percent inhibition) [2] | Ki ([2]; 10 minute preincubation, substrate start, read-out: INHIB (Ki)) [µM]
CCOC(=O)/C(C)=C/[C@H](CCC(N)=O)NC(=O)[C@H](Cc1ccc(F)cc1)NC(=O)[C@@H](NC(=O)SC1CCCC1)C(C)(C)C [Compound 177, Ethyl-2-Methyl-3-[Cyclopentylthiocarbonyl-L-α-(t-Butyl-Gly)-L-(4-F-Phe)-L-Gln]-E-Propenoate] | 0.5 | 80,300 M-1 sec-1 | > 100 |  |  |  | 
CCOC(=O)/C=C/[C@H](CCC(N)=O)NC(=O)[C@H](CSCC)NC(=O)[C@H](CC(C)C)NC(=O)OCc1ccccc1 [Compound 143] | 10 | 2,963 M-1 sec-1 | > 320 |  |  |  | 
CC(C)C[C@H](NC(=O)OCc1ccccc1)C(=O)N[C@@H](Cc1ccccc1)C(=O)N[C@H](/C=C/C(=O)N1CCCCO1)CCC(N)=O [Compound 84] | 16 | 18,650 M-1 sec-1 |  | > 320 |  |  | 
CCOC(=O)/C=C/[C@H](CCC(N)=O)NC(=O)[C@H](Cc1ccc(C(N)=O)cc1)NC(=O)[C@H](CC(C)C)NC(=O)OCc1ccccc1 [Compound 133] | > 177 | 9,600 M-1 sec-1 | 177 |  |  |  | 
CCOC(=O)/C=C/[C@H](CCC(N)=O)NC(=O)[C@H](Cc1ccc(F)cc1)NC(=O)[C@@H](NC(=O)SC1CCCC1)C(C)C [Compound 184] | 0.19 | 59,900 M-1 sec-1 | > 100 |  |  |  | 
CCOC(=O)/C=C/[C@H](CCC(N)=O)NC(=O)[C@H](Cc1ccc(COC)cc1)NC(=O)[C@H](CC(C)C)NC(=O)OCc1ccccc1 [Compound 140] | 39 | 7,122 M-1 sec-1 | > 320 |  |  |  | 
CC(=O)N1CC/C(=C\[C@H](CCC(N)=O)NC(=O)[C@H](Cc2ccccc2)NC(=O)[C@H](CC(C)C)NC(=O)OCc2ccccc2)C1=O [Compound 164] | 0.71 | 155,500 M-1 sec-1 | > 100 |  |  |  | 
CC(C)C[C@H](NC(=O)OCc1ccccc1)C(=O)N[C@@H](Cc1ccccc1)C(=O)N[C@H](/C=C/S(C)(=O)=O)CCC(N)=O [Compound 9, Methyl-[2-(CBZ-L-Leu-L-Phe-L-Gln)-E-Vinyl]Sulfone] | > 320 | 160 M⁻¹ s⁻¹ | > 320 |  | 20(1) percent |  | 
CC(C)C[C@H](NC(=O)OCc1ccccc1)C(=O)N[C@@H](Cc1ccccc1)C(=O)N[C@H](/C=C/C(=O)c1ccc(C#N)cc1)CCC(N)=O [Compound 80] | 50 | 200,000 M-1 sec-1 |  | > 320 |  |  | 
CC(C)C[C@H](NC(=O)OCc1ccccc1)C(=O)N[C@@H](Cc1ccccc1)C(=O)N[C@H](/C=C/C(=O)N1CCc2ccc(S(C)(=O)=O)cc21)CCC(N)=O [Compound 97] | > 320 | 12,900 M-1 sec-1 |  | > 320 |  |  | 
CC(C)C[C@H](NC(=O)OCc1ccccc1)C(=O)N[C@@H](Cc1ccccc1)C(=O)N[C@H](/C=C/C(=O)O)CCC(N)=O [Compound 15, 3-(CBZ-L-Leu-L-Phe-L-Gln)-E-Propenoic Acid] | > 100 | 27 M⁻¹ s⁻¹ | > 100 |  |  | 55(50) percent | 
CC(C)C[C@H](NC(=O)OCc1ccccc1)C(=O)N[C@@H](Cc1ccccc1)C(=O)N[C@H](/C=C/C(=O)OC1CCCC1)CCC(N)=O [Compound 18, Cyclopentyl-3-(CBZ-L-Leu-L-Phe-L-Gln)-E-Propenoate] | 0.64 | 7,700 M-1 sec-1 | > 100 |  |  |  | 15.3
CCOC(=O)/C(C)=C/[C@H](CCC(N)=O)NC(=O)[C@H](Cc1ccc(C)cc1)NC(=O)[C@@H](NC(=O)SC1CCCC1)C(C)(C)C [Compound 175, Ethyl-2-Methyl-3-[Cyclopentylthiocarbonyl-L-α-(t-Butyl-Gly)-L-(4-Me-Phe)-L-Gln]-E-Propenoate] | 0.18 | 124,000 M-1 sec-1 |  | > 100 |  |  | 
